The test system of experiment [1] is neointima in rat carotids. The experiment in a line: In vivo assay for antiproliferative activity in damaged rat carotids (neointima after balloonisation). Set-up: species or system rat (male Wistar Kyoto). To be noted: 0.3 mg/kg/h i.v. As to the method: In vivo assay for determining the antiproliferative activity of the compounds in accordance with the invention in damaged rat carotids.
The left carotids of male Wistar Kyoto rats (300-400 g) were, after narcosis, damaged with a 2F embolectomy catheter by pulling the catheter in the pumped-up state through the vessel three times. After wound management, the animals were kept in pairs with standard feed and water ad libidum.
The compounds were administered in concentrations of 0.3-1 mg/kg/h i.v. For this purpose, an osmotic minipump was implanted under the dorsal skin of the animals during the narcosis and was connected with the jugular vein. Thus, the compounds could be administered constantly during the entire test period of 14 days.
After 14 days, proliferative tissue (neointima) had formed, the size of which could be determined morphometrically on histological cross-sections.In order to do this, the rats were sacrificed and perfusion-fixed with glutaraldehyde.

In a further experiment the target is T1, thrombin (Bos taurus, UniProt P00735).
T1 construct: purchased Roche Basle
The experiment in a line: Inhibition of thrombin in the chromogenic substrate assay. The note with it: plasma, antithrombin III, substrate S-2238, 37° C., pH 8.4. It counts as biochemical. As to the method:
(§1) The blood coagulation-inhibiting activity was determined as follows:
(§2) The buffer solution used consisted of 50 mM Tris buffer, 180 mM NaCl, 7.5 mM EDTA Na2, 1% PEG 6000 and 0.02% Tween 80, pH 8.4. The assay solution consisted of 50 μl of buffer, 30 μl of antithombin III (1 U/ml, Kabi Diagnostica) and 20 μl of plasma which contained various concentrations of test compounds. 30 μl of sample solution and 20 μl of water with 180 μl of thrombin (1 U/ml, thrombin reagent, Roche Basle) were added to the test cuvette in the automatic analyzer.

Another experiment relates to rat smooth muscle cells. The experiment in a line: Antiproliferative activity in cell cultures (rat smooth muscle cells), relative to heparin. The experiment is classed as cell-based. To be noted: 100 μg/ml, 48 h, heparin at same concentration = reference. As to the method:
The antiproliferative activity of a substance is expressed as the ri value which is a comparative value to the corresponding activity of heparin and which was determined in cell cultures as follows: rat smooth muscle cells were applied to cell culture plates in a density of 8×10^3 cells/well, medium: DMEM (Dulbecco Modified Eagle Medium) with 10% FCS (fetal calf serum); cultivation at 37° C. and 5% CO2. After 4 hours, the number of adhered cells was determined and the substances to be tested (100 μg/ml, dissolved in H2 O) were added. […] Subsequently,the cells were incubated for 48 h. and thereafter the cell count was determined once more.
The inhibition i of the cell growth, that is, the reduction in the growth rate of the cells in per cent compared to the control, was calculated from these values. [formula] with the growth rate μ being calculated as [formula] in which Z is the number of cells and d is the time in days.
Finally, ri --the relative inhibitory activity--which expresses the activity of a substance (at 100 μg/ml) in comparison to the activity of heparin in the same concentration in the same experiment, was calculated [formula] Blood coagulation inhibition

The next experiment addresses factor Xa (Bos taurus, UniProt P00743). The experiment in a line: Inhibition of factor Xa in the chromogenic substrate assay. It counts as biochemical. The note with it: plasma, antithrombin III, substrate S-2222, 37° C., pH 8.4. As to the method:
[Worded in the source for another target; used here, by the source, with some conditions changed.] as §1, §2

This note sets out measurements from patent US5830920A, “Sulfuric acid esters of sugar alcohols” (Hoffmann-La Roche Inc., priority 1995, dated 1998).

Some results are limits rather than exact numbers.

Chain of factor Xa (P00743 234-492 limits assumed): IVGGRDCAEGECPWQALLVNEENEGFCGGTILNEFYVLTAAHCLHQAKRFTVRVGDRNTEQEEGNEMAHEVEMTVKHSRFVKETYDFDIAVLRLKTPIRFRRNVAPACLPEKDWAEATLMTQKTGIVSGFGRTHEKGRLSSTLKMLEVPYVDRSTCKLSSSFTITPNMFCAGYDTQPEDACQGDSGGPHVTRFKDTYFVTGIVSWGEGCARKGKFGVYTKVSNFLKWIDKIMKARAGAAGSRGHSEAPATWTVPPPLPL
Chain of factor Xa (P00743 41-180 limits assumed): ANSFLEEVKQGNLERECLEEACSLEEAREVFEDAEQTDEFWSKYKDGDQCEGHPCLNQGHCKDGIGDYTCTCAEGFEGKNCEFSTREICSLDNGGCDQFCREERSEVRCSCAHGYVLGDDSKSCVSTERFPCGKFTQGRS

Consider “1,6-Bis-O-[4-[2-(2,3,4,5,6-penta-O-sulfo-D-glucit-1-ylcarbamoyl)-ethyl]-phenyl]-2,3,4,5-tetra-O-sulfo-galactitol tetradecasodium salt [Example 6]”, for which the “effect on neointima compared to concentrated heparin” value in experiment [1] (14 days, comparison with heparin) is on record as “comparable effect to that of concentrated heparin”. Besides, the “cross sectional area of the neointima in rat carotids 14 days after balloonisation” value in experiment [1] (osmotic minipump) was “significantly reduced (p<0.01, t-test)”. Further, the “Anticoagulant Activity IC50 Thrombin” value on thrombin is over 1000 µg/mL. In addition, the “Antiproliferative Activity ri (relative inhibitory activity compared to heparin)” value with rat smooth muscle cells is given as 0.7. In addition, at factor Xa, the “Anticoagulant Activity IC50 Factor Xa” value was over 1000 µg/mL.
With “1,6-Bis-O-[6-(2,3,4,5,6-penta-O-sulfo-D-glucit-1-ylcarbamoyl)-naphthalen-2- yl]-2,3,4,5-tetra-O-sulfo-galactitol tetradecasodium salt [Example 16]”, the “Anticoagulant Activity IC50 Thrombin” value on thrombin is over 1000 µg/mL. Also, the “Antiproliferative Activity ri (relative inhibitory activity compared to heparin)” value in the experiment on rat smooth muscle cells worked out at 2.1. Further, the “Anticoagulant Activity IC50 Factor Xa” value at factor Xa is over 1000 µg/mL.
As for “1,6-bis-O-[3-(2,3,4,5,6-penta-O-sulfo-D-glucit-1-ylcarbamoyl)-naphthalen-2-yl]-2,3,4,5-tetra-O-sulfo-galactitol tetradecasodium salt [Example 14]”, the “Anticoagulant Activity IC50 Thrombin” value on thrombin was over 1000 µg/mL. For the same substance, in the experiment with rat smooth muscle cells, the “Antiproliferative Activity ri (relative inhibitory activity compared to heparin)” value was found to be 1.5. Also, the “Anticoagulant Activity IC50 Factor Xa” value at factor Xa is over 1000 µg/mL.
Regarding “1,6-bis-O-[3-(2,3,4,5-tetra-O-sulfo-D-arabinit-1-yloxy)-naphthalen-2-yl]-2,3,4,5-tetra-O-sulfo-galactitol dodecasodium salt [Example 40]”, on thrombin, the “Anticoagulant Activity IC50 Thrombin” value was over 1000 µg/mL. The “Antiproliferative Activity ri (relative inhibitory activity compared to heparin)” value in the experiment on rat smooth muscle cells is on record as 1.4. Besides, the “Anticoagulant Activity IC50 Factor Xa” value on factor Xa was over 1000 µg/mL.
For the substance “1,6-bis-O-[3-[benzyl 2,6-didesoxy-6-(2,3,4,5,6-penta-O-sulfo-D-gluconoylamino)-3,4-di-O-sulfo-a-D-glucopyranosid-2-ylcarbamoyl]-naphthalen-1-yl]-2,3,4,5-tetra-O-sulfo-galactitol octadecasodium salt [Example 56]”, on thrombin, the “Anticoagulant Activity IC50 Thrombin” value was over 1000 µg/mL. For the same substance, the “Antiproliferative Activity ri (relative inhibitory activity compared to heparin)” value with rat smooth muscle cells stood at 1.7. Further, at factor Xa, the “Anticoagulant Activity IC50 Factor Xa” value is over 1000 µg/mL.
Consider “1,6-bis-O-[3-biphenyl-4-ylmethoxy-5-(2,3,4,5,6-penta-O-sulfo-D-glucit-1-ylcarbamoyl)-phenyl]-2,3,4,5-tetra-O-sulfo-galactitol tetradecasodium salt [Example 17]”, for which the “Anticoagulant Activity IC50 Thrombin” value at thrombin is over 1000 µg/mL. In addition, the “Antiproliferative Activity ri (relative inhibitory activity compared to heparin)” value in the experiment on rat smooth muscle cells is reported as 1.5. The “Anticoagulant Activity IC50 Factor Xa” value on factor Xa was over 1000 µg/mL.
Consider “1,6-bis-O-[4-[2-[4-(2,3,4,5,6-penta-O-sulfo-D-glucit-1-ylcarbamoyl)-phenyl]-ethyl]-phenyl]-2,3,4,5-tetra-O-sulfo-galactitol tetradecasodium salt [Example 11]”, for which the “Anticoagulant Activity IC50 Thrombin” value on thrombin is over 1000 µg/mL. Besides, the “Antiproliferative Activity ri (relative inhibitory activity compared to heparin)” value in the experiment on rat smooth muscle cells is 2.2. The “Anticoagulant Activity IC50 Factor Xa” value on factor Xa is over 1000 µg/mL.
Consider “1,6-bis-O-[4-[2-[benzyl-2,6-didesoxy-6-(2,3,4,5,6-penta-O-sulfo-D-gluconoylamino)-3,4-di-O-sulfo-a-D-glucopyranosid-2-ylcarbamoyl]-ethyl]-phenyl]-2,3,4,5-tetra-O-sulfo-galactitol octadecasodium salt [Example 58]”, for which, at thrombin, the “Anticoagulant Activity IC50 Thrombin” value was over 1000 µg/mL. For the same substance, the “Antiproliferative Activity ri (relative inhibitory activity compared to heparin)” value with rat smooth muscle cells came to 1.8. The “Anticoagulant Activity IC50 Factor Xa” value on factor Xa is over 1000 µg/mL.
Turning to “1,6-bis-O-[4-[4-O-[4-[(E)-2-(2,3,4,5,6-penta-O-sulfo-D-glucit-1-ylcarbamoyl)-vinyl]-phenyl]-2,3-di-O-sulfo-D-threit-1-yloxy]-phenyl]-2,3,4,5-tetra-O- sulfo-galactitol octadecasodium salt [Example 48]”, the “Anticoagulant Activity IC50 Thrombin” value at thrombin was over 1000 µg/mL. Moreover, the “Antiproliferative Activity ri (relative inhibitory activity compared to heparin)” value in the experiment on rat smooth muscle cells turned out to be 2.7. Also, on factor Xa, the “Anticoagulant Activity IC50 Factor Xa” value is over 1000 µg/mL.
With “1,6-bis-O-[4-[4-O-[4-[(E)-2-[methyl-(2,3,4,5,6-penta-O-sulfo-D-glucit-1-yl)-carbamoyl]-vinyl]-phenyl]-2,3-di-O-sulfo-D-threit-1-yloxy]-phenyl]-2,3,4,5-tetra-O-sulfo-galactitol octadecasodium salt [Example 52]”, the “Anticoagulant Activity IC50 Thrombin” value on thrombin is over 1000 µg/mL. Moreover, the “Antiproliferative Activity ri (relative inhibitory activity compared to heparin)” value in the experiment with rat smooth muscle cells worked out at 0.8. Further, on factor Xa, the “Anticoagulant Activity IC50 Factor Xa” value was over 1000 µg/mL.
With “1,6-bis-O-[4-[(E)-2-[benzyl 2,6-didesoxy-2-[4-(2,3,4,5,6-penta-O-sulfo-D-glucit-1-ylamino)-3-nitro-benzoyl-amino]-3,4-di-O-sulfo-a-D-glucopyranosid-6-ylcarbamoyl]-vinyl]-phenyl]-2,3,4,5-tetra-O-sulfo-galactitol octadecasodium salt [Example 61]”, the “Anticoagulant Activity IC50 Thrombin” value on thrombin was over 1000 µg/mL. Also, the “Antiproliferative Activity ri (relative inhibitory activity compared to heparin)” value in the experiment on rat smooth muscle cells is on record as 2.4. In addition, the “Anticoagulant Activity IC50 Factor Xa” value at factor Xa is over 1000 µg/mL.
Turning to “1,6-bis-O-[6-[(S)-2,3-bis-sulfooxy-propoxy]-3-(2,3,4,5,6-penta-O-sulfo-D-glucit 1-ylcarbamoyl)-naphthalen-2-yl]-2,3,4,5-tetra-O-sulfo-galactitol octadecasodium salt [Example 22]”, at thrombin, the “Anticoagulant Activity IC50 Thrombin” value is over 1000 µg/mL. The “Antiproliferative Activity ri (relative inhibitory activity compared to heparin)” value in the experiment with rat smooth muscle cells is listed as 2.1. Also, the “Anticoagulant Activity IC50 Factor Xa” value on factor Xa is over 1000 µg/mL.
With “1,6-bis-O-[6-[benzyl 2,6-didesoxy-2-[3-nitro-4-(2,3,4,5,6-penta-O-sulfo-D-glucit-1-ylamino)-benzoylamino]-3,4-di-O-sulfo-a-D-glucopyranosid-6-ylcarbamoyl]-naphthalen-2-yl]-2,3,4,5-tetra-O-sulfo-galactitol octadecasodium salt [Example 59]”, the “Anticoagulant Activity IC50 Thrombin” value on thrombin is over 1000 µg/mL. Further, in the experiment on rat smooth muscle cells, the “Antiproliferative Activity ri (relative inhibitory activity compared to heparin)” value is 1.8. Besides, at factor Xa, the “Anticoagulant Activity IC50 Factor Xa” value is over 1000 µg/mL.
As for “1,6-didesoxy-2,3,4,5-tetra-O-sulfo-1,6-bis-[3-(2,3,4,5-tetra-O-sulfo-D-arabinit-1-yloxy)-naphthalen-2-ylcarbonylamino]-galactitol dodecasodium salt [Example 45]”, at thrombin, the “Anticoagulant Activity IC50 Thrombin” value was over 1000 µg/mL. The “Antiproliferative Activity ri (relative inhibitory activity compared to heparin)” value in the experiment on rat smooth muscle cells amounted to 1.4. For the same substance, on factor Xa, the “Anticoagulant Activity IC50 Factor Xa” value is over 1000 µg/mL.
Take “2,3,4,5-tetra-O-sulfo-1,6-bis-O-[4-[4-(2,3,4,5-tetra-O-sulfo-D-arabinit-1- yloxy)-benzyl]-phenyl]-D-mannitol dodecasodium salt [Example 43]”: the “Anticoagulant Activity IC50 Thrombin” value at thrombin was over 1000 µg/mL. Moreover, in the experiment with rat smooth muscle cells, the “Antiproliferative Activity ri (relative inhibitory activity compared to heparin)” value worked out at 1.3. The “Anticoagulant Activity IC50 Factor Xa” value on factor Xa was over 1000 µg/mL.
As for Heparin [reference compound], the “Anticoagulant Activity IC50 Thrombin” value at thrombin stood at 1.9 µg/mL. Moreover, the “Antiproliferative Activity ri (relative inhibitory activity compared to heparin)” value in the experiment on rat smooth muscle cells is given as 1.0. Also, the “Anticoagulant Activity IC50 Factor Xa” value at factor Xa was found to be 2.7 µg/mL.
